# Experimental data reported in the kinase profiling compilation of Christmann-Franck et al. (2016).
# What was measured:
# Assay in all cases: KINOMEscan competition binding
# AXL (human) = AXL (human) (UniProt P30530); conditions: compound 10.0 µM
# BRAF (human) = BRAF (human) (UniProt P15056); conditions: compound 10.0 µM
# BRSK1 (human) = BRSK1 (human) (UniProt Q8TDC3); conditions: compound 10.0 µM
# CAMK4 (human) = CAMK4 (human) (UniProt Q16566); conditions: compound 10.0 µM
# CHEK1 (human) = CHEK1 (human) (UniProt O14757); conditions: compound 10.0 µM
# CLK3 (human) = CLK3 (human) (UniProt P49761); conditions: compound 10.0 µM
# CPK1 (P.falciparum) = conditions: compound 10.0 µM
# CRK2 (P.falciparum) = CRK2 (P.falciparum) (UniProt P61075); conditions: compound 10.0 µM
# CRK2 (P.falciparum), sequence (P61075 whole entry, looked up): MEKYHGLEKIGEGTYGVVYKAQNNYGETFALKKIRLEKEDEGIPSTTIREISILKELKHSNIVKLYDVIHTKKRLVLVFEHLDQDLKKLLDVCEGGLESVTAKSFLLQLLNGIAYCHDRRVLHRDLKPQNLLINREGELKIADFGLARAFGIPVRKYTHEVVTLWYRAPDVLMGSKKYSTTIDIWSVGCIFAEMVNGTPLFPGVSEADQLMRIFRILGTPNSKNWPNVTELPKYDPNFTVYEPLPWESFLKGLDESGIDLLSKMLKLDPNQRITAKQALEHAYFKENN
# DYRK1A (human) = DYRK1A (human) (UniProt Q13627); conditions: compound 10.0 µM
# EPHA4 (human) = EPHA4 (human) (UniProt P54764); conditions: compound 10.0 µM
# FLT1 (human) = FLT1 (human) (UniProt P17948); conditions: compound 10.0 µM
# HUNK (human) = HUNK (human) (UniProt P57058); conditions: compound 10.0 µM
# HUNK (human), sequence (P57058 whole entry, looked up): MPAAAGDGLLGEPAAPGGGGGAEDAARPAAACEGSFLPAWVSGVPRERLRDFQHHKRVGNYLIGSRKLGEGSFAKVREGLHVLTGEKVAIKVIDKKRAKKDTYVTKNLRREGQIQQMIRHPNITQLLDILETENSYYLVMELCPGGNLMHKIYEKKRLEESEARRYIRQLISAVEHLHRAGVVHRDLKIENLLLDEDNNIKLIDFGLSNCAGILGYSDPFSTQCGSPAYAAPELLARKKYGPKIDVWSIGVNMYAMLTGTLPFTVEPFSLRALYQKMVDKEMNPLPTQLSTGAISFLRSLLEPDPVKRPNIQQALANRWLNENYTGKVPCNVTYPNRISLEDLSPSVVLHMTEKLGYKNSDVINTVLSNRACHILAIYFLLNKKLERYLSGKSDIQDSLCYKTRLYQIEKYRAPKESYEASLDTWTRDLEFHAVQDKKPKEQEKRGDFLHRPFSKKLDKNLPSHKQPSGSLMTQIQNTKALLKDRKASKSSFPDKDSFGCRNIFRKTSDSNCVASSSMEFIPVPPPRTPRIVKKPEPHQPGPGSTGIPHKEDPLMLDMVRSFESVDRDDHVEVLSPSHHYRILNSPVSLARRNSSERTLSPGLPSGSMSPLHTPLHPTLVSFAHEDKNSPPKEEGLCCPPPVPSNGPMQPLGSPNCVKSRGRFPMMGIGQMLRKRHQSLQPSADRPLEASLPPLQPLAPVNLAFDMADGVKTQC
# ICK (human) = ICK (human) (UniProt Q9UPZ9); conditions: compound 10.0 µM
# [1] = molecular target: JAK1 JH1 catalytic (human) (UniProt P23458); conditions: compound 10.0 µM
# JAK1 JH1 catalytic (human), sequence (P23458 whole entry, looked up): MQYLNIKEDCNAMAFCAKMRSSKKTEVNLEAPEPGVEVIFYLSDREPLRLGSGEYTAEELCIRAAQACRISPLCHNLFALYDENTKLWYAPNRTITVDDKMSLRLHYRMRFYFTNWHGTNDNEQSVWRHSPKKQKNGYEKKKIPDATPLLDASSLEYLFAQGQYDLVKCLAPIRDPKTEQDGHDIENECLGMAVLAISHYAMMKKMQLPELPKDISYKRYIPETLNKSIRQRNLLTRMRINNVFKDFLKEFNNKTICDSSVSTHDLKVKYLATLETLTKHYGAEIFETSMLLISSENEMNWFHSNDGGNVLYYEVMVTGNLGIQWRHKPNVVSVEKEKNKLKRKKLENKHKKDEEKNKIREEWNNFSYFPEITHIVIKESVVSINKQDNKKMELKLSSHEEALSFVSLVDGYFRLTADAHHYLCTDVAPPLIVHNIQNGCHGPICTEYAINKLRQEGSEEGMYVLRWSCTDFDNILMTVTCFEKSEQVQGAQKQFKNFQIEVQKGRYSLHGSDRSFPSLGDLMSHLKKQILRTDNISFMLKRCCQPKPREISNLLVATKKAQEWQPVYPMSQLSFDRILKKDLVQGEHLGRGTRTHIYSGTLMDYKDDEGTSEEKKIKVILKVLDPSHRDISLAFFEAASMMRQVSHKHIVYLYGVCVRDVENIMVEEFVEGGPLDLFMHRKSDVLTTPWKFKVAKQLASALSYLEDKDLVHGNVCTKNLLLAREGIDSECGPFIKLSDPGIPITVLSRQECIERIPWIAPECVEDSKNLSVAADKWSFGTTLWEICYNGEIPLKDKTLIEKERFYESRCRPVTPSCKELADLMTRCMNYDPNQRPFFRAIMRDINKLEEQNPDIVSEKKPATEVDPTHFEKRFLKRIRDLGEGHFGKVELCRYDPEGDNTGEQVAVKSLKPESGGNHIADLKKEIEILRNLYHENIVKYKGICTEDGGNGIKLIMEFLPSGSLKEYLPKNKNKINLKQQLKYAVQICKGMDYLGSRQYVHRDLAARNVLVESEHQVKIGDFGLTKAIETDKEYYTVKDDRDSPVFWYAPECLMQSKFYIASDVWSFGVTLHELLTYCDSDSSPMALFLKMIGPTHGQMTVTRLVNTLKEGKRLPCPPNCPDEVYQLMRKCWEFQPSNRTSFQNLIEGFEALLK
# [2] = system: KIT (human), P10721 [V559D/T670I]; conditions: compound 10.0 µM
# MAP3K4 (human) = MAP3K4 (human) (UniProt Q9Y6R4); conditions: compound 10.0 µM
# MAP3K5 (human) = MAP3K5 (human) (UniProt Q99683); conditions: compound 10.0 µM
# MAPK13 (human) = MAPK13 (human) (UniProt O15264); conditions: compound 10.0 µM
# MAPK8 (human) = MAPK8 (human) (UniProt P45983); conditions: compound 10.0 µM
# MAPK9 (human) = MAPK9 (human) (UniProt P45984); conditions: compound 10.0 µM
# MAPKAPK5 (human) = MAPKAPK5 (human) (UniProt Q8IW41); conditions: compound 10.0 µM
# MARK4 (human) = MARK4 (human) (UniProt Q96L34); conditions: compound 10.0 µM
# MATK (human) = MATK (human) (UniProt P42679); conditions: compound 10.0 µM
# MST4 (human) = MST4 (human) (UniProt Q9P289); conditions: compound 10.0 µM
# MST4 (human), sequence (Q9P289 whole entry, looked up): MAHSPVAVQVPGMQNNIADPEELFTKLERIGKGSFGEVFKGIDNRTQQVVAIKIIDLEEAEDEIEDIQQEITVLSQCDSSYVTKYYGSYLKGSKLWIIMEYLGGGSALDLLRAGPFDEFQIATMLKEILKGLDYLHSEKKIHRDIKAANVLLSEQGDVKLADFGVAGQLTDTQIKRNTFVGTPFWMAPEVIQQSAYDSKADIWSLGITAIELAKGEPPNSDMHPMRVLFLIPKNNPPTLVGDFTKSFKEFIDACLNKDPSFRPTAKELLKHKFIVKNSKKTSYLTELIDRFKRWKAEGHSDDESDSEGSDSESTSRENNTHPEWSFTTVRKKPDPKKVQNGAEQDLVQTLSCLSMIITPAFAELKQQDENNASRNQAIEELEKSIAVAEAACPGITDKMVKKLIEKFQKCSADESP
# MYO3B (human) = MYO3B (human) (UniProt Q8WXR4); conditions: compound 10.0 µM
# PI4KB (human) = PI4KB (human) (UniProt Q9UBF8); conditions: compound 10.0 µM
# [3] = system: PIK3CA (human), P42336 [E545A]; conditions: compound 10.0 µM
# [4] = system: PIK3CA (human), P42336 [I800L]; conditions: compound 10.0 µM
# PIK3CG (human) = PIK3CG (human) (UniProt P48736); conditions: compound 10.0 µM
# PLK1 (human) = PLK1 (human) (UniProt P53350)
# PLK1 (human), sequence (P53350 whole entry, looked up): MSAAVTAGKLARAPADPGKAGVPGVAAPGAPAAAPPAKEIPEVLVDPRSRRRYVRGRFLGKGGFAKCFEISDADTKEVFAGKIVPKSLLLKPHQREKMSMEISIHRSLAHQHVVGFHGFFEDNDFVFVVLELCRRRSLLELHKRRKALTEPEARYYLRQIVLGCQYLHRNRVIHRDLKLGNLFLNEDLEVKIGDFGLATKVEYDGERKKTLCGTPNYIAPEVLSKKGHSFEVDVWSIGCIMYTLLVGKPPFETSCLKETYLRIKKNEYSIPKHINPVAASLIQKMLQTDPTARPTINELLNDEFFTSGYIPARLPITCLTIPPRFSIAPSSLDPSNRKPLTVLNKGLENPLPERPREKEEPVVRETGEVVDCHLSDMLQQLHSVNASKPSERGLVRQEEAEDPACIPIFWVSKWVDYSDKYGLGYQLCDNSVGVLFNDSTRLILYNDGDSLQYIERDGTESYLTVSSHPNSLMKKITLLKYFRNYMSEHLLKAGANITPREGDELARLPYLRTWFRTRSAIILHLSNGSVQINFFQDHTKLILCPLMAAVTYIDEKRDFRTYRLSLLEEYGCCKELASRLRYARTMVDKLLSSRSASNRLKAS
# PRKAA1 (human) = PRKAA1 (human) (UniProt Q13131); conditions: compound 10.0 µM
# PRKCQ (human) = PRKCQ (human) (UniProt Q04759); conditions: compound 10.0 µM
# PRKCQ (human), sequence (Q04759 whole entry, looked up): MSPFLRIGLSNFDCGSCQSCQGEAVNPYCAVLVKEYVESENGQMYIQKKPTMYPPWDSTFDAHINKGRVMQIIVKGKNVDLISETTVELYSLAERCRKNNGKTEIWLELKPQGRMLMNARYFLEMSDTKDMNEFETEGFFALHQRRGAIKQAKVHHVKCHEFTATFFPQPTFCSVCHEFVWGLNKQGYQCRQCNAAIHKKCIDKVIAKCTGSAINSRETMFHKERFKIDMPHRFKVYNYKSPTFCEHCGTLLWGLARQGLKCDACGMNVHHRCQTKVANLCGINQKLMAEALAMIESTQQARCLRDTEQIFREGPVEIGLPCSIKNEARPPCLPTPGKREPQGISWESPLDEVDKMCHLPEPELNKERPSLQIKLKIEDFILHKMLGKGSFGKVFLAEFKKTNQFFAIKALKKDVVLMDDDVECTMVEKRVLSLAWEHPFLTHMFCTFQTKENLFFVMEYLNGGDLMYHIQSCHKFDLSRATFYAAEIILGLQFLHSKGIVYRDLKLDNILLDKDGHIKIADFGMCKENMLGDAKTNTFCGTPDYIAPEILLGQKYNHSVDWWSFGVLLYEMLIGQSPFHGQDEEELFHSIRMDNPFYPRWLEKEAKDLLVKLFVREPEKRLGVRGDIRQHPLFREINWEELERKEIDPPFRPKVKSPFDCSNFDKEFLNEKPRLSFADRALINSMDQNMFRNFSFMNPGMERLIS
# PTK2B (human) = PTK2B (human) (UniProt Q14289); conditions: compound 10.0 µM
# [5] = system: RET (human), P07949 [M918T]; conditions: compound 10.0 µM
# SIK1 (human) = SIK1 (human) (UniProt P57059); conditions: compound 10.0 µM
# SIK2 (human) = SIK2 (human) (UniProt Q9H0K1); conditions: compound 10.0 µM
# SIK2 (human), sequence (Q9H0K1 whole entry, looked up): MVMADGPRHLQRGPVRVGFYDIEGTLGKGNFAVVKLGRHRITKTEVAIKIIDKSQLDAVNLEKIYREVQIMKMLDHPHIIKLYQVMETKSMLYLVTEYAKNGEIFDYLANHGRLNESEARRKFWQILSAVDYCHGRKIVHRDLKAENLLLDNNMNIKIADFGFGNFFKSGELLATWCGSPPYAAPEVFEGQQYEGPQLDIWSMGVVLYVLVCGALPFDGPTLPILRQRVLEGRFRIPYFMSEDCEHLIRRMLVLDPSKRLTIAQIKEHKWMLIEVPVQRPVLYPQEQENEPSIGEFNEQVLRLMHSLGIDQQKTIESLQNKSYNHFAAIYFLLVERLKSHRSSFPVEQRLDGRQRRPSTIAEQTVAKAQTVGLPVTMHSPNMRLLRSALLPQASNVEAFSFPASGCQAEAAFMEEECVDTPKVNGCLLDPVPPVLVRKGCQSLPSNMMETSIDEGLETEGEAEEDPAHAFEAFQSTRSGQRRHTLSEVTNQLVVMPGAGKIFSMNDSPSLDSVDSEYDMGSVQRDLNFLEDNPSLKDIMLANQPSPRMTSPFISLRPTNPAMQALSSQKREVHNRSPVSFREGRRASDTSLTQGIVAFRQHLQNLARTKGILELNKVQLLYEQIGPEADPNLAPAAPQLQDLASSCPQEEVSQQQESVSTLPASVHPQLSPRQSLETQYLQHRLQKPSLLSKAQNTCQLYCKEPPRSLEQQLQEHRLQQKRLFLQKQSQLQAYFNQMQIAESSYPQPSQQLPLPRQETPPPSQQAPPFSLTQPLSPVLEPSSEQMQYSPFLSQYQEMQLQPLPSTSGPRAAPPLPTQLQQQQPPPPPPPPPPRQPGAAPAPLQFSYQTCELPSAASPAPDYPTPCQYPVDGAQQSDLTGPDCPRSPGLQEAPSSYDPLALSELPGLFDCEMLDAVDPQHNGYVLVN
# SIK3 (human) = SIK3 (human) (UniProt Q9Y2K2); conditions: compound 10.0 µM
# STK32B (human) = STK32B (human) (UniProt Q9NY57); conditions: compound 10.0 µM
# TEC (human) = TEC (human) (UniProt P42680); conditions: compound 10.0 µM
# TGFBR2 (human) = TGFBR2 (human) (UniProt P37173); conditions: compound 10.0 µM
# ULK3 (human) = ULK3 (human) (UniProt Q6PHR2); conditions: compound 10.0 µM
smiles,measurement,setting,value
COc1cc(C(=O)N2CCC(N3CCN(C)CC3)CC2)ccc1Nc1ncc2c(n1)N(C)c1ccccc1C(=O)N2C,"kinase still bound, per cent of control",AXL (human),100%
same,"kinase still bound, per cent of control",BRAF (human),81%
same,"kinase still bound, per cent of control",BRSK1 (human),81%
same,"kinase still bound, per cent of control",CAMK4 (human),79%
same,"kinase still bound, per cent of control",CHEK1 (human),100%
same,"kinase still bound, per cent of control",CLK3 (human),95%
same,"kinase still bound, per cent of control",CPK1 (P.falciparum),100%
same,"kinase still bound, per cent of control",CRK2 (P.falciparum),100%
same,"kinase still bound, per cent of control",DYRK1A (human),99%
same,"kinase still bound, per cent of control",EPHA4 (human),89%
same,"kinase still bound, per cent of control",FLT1 (human),100%
same,"kinase still bound, per cent of control",HUNK (human),100%
same,"kinase still bound, per cent of control",ICK (human),90%
same,"kinase still bound, per cent of control",[1],100%
same,"kinase still bound, per cent of control",[2],81%
same,"kinase still bound, per cent of control",MAP3K4 (human),100%
same,"kinase still bound, per cent of control",MAP3K5 (human),100%
same,"kinase still bound, per cent of control",MAPK13 (human),72%
same,"kinase still bound, per cent of control",MAPK8 (human),95%
same,"kinase still bound, per cent of control",MAPK9 (human),94%
same,"kinase still bound, per cent of control",MAPKAPK5 (human),97%
same,"kinase still bound, per cent of control",MARK4 (human),78%
same,"kinase still bound, per cent of control",MATK (human),100%
same,"kinase still bound, per cent of control",MST4 (human),95%
same,"kinase still bound, per cent of control",MYO3B (human),83%
same,"kinase still bound, per cent of control",PI4KB (human),95%
same,"kinase still bound, per cent of control",[3],98%
same,"kinase still bound, per cent of control",[4],38%
same,"kinase still bound, per cent of control",PIK3CG (human),15%
same,Kd,PLK1 (human),75 nM
same,"kinase still bound, per cent of control",PLK1 (human); compound 10.0 µM,0.7%
same,"kinase still bound, per cent of control",PRKAA1 (human),51%
same,"kinase still bound, per cent of control",PRKCQ (human),100%
same,"kinase still bound, per cent of control",PTK2B (human),78%
same,"kinase still bound, per cent of control",[5],100%
same,"kinase still bound, per cent of control",SIK1 (human),77%
same,"kinase still bound, per cent of control",SIK2 (human),98%
same,"kinase still bound, per cent of control",SIK3 (human),100%
same,"kinase still bound, per cent of control",STK32B (human),100%
same,"kinase still bound, per cent of control",TEC (human),100%
same,"kinase still bound, per cent of control",TGFBR2 (human),100%
same,"kinase still bound, per cent of control",ULK3 (human),100%
